The values that follow come from paper PMC9884808, “Pharmacokinetics, tissue distribution, and antitumor activity of a novel compound, NY-2, in non-small cell lung cancer” (Frontiers in Pharmacology, 2023).

SMILES strings stand for the structures. Marks after values point to notes of the source that are not given here.

Data set [1] deals with HUVECs. In words: MTT cytotoxicity on normal cells. The data set is classed as cell-based, human. Conditions: concentration of 10 μM or below, 48 h. As to the method: The human colorectal cancer cell lines, HCT116 and LoVo, the breast cancer cell line, T47D, the hepatocellular carcinoma cell line, HepG2, the normal human liver cell line, HL7702, human umbilical vein endothelial cells (HUVECs), and the non-small cell lung cancer cell lines, A549, H1993, HCC827, H460, were purchased from the American Type Culture Collection (Manassas, VA, United States). Cell lines were cultured in the recommended RPMI-1640 medium (AE24464298, Hyclone, United States) and DMEM medium (AE29422278, Hyclone, United States) supplemented with 10% fetal bovine serum (FBS; JC63470, FB15015, Clark, United States) with 1% penicillin-streptomycin. […]
Cell viability was measured by the MTT assay. […] An assay kit (WLA073, Wanlei Co., Liaoning, China), was used according to the manufacturer’s instructions to measure LDH activity, The absorbance at 450 nm was measured with a microplate reader (Elx-800, Bio-Rad, China).
First, the effects of NY-2 and ZLDI-8 on the survival rates of four NSCLC cell lines, A549, H1993, HCC827, H460, were compared by the MTT cytotoxicity assay. The various types of NSCLC cells were incubated with increasing concentrations of NY-2 and ZLDI-8 (1.25, 2.5, 5, 10, and 20 μM), and the cell viability at 48 h was measured. […]

A short description of data set [2]: Acute toxicity assay in KM mice. Conditions: tail vein injection 1000 mg/kg in saline, 10 days observation, 6 animals per group. The data set is classed as in vivo. As to the method:
An acute toxicity assay was assessed in KM mice by tail vein injection of NY-2 dissolved in saline at a dose of 1000 mg/kg (6 animals per group).

The subject of data set [3] is A549 cells. In words: LDH activity assay. The data set is classed as cell-based, human. The note with it: 48 h, increasing concentrations, vs control. As to the method:
Cell viability was measured by the MTT assay. HCT116, HL7702, A549, H1993, HCC827, and H460 cells were dispensed into 96-well plates at a density of 1 × 10^5 cells/mL. After 24–48 h incubation, cells were treated with the compounds at different concentrations for the indicated periods. An assay kit (WLA073, Wanlei Co., Liaoning, China), was used according to the manufacturer’s instructions to measure LDH activity, The absorbance at 450 nm was measured with a microplate reader (Elx-800, Bio-Rad, China).

The test system of data set [4] is A549 cells. In words: Transwell invasion assay. The data set is classed as cell-based, human. Conditions: 48 h. As to the method:
For the transwell invasion assay, Matrigel (50 mg/L) was diluted 1:8 with serum-free medium, and 60 μL of diluted Matrigel was pipetted into each transwell (Corning, NY, United States) and incubated overnight. The upper chamber was seeded with 1× 10^5 cells that had been starved for 24 h in 100 µL of serum-free medium, and 700 µL of medium with 10% FBS was added to the lower compartment. After cultivation for 48 h at 37°C, the cells in the upper chamber were removed with a cotton swab, and the cells on the lower surface of the filter were fixed with methanol for 20 min and stained with 0.1% crystal violet after drying. Excess stain was eluted with 33% acetic acid, and the absorbance was measured at 490 nm.

Data set [5] has as its system A549 cells. In words: Wound-healing migration assay. The note with it: 48 h. The data set is classed as cell-based, human. The method, then: A wound-healing assay was used to assess the migration ability. Cells were seeded into 6-well plates at 3 × 10^5 cells per well. At about 90% confluence, uniform scratches were made in the monolayer using a sterile 200 μL pipet tip. After washing with phosphate-buffered saline (PBS), the cells were cultured in 2% FBS medium and photos were taken at 0 and 48 h. The rate of cell migration was determined by measuring the decrease in gap with compared to the initial gap at 0 h. Readings were performed independently in triplicate.

In data set [6] the test system is Notch1 and integrinβ1. In words: Western blot protein analysis. The data set is classed as cell-based, human. The text has this: Antibodies against ADAM17 (Cat. No. ab39163), Notch1 (Cat. No. ab52627), integrin β1 (Cat. No. ab52971), β-actin (Cat. No. ab8226), and anti-rabbit IgG (Cat. No. ab6728) and anti-mouse IgG (Cat. No. ab190475) secondary antibodies conjugated with horseradish peroxidase (HRP) were purchased from Abcam (Cambridge, United Kingdom). Total protein was extracted from HCC cells, and samples were separated by SDS-PAGE and blotted to polyvinylidene fluoride (PVDF) membranes (Millipore, Billerica, MA, United States). The membranes were blocked and then incubated with primary antibodies, followed by washing and incubation with HRP-conjugated secondary antibodies. Stained blots were developed with enhanced chemiluminescence reagents (Pierce, Rockford, IL, United States) and imaged on X-ray film.
In general terms: Immunoblotting shows a protein as a band on a membrane.

The test system of data set [7] is A549 cells. Conditions: 28 days. As to the method: The experimental groups included the normal (no tumor cells, vehicle) group, the model (tumor cells, vehicle) group, NY-2-treated, and paclitaxel-treated groups, with six mice in each group. After 7 days for adaptation, 200 µL of A549 cells (2× 10^6 cells/mice) in serum-free medium were injected into the tail vein except for those in the normal group. Drug or vehicle administration via tail vein was started on the next day. The normal group and model group were given the same amount of sterile water containing 1% DMSO and 1% Tween as vehicle control. […] Injections were done every other day. The general conditions of the nude mice, with regard to activity and food ingestion, were observed every day, and their body weight was measured every other day.
KM mice were treated with ZLDI-8 or NY-2 by tail vein injection (6 mg/kg) for 7 days, then the mice were euthanized and liver and kidney tissues were removed and sectioned. For the experiment with BALB/c nude mice, the tail vein injections of NY-2 (6 mg/kg) were continued for 28 days, and the lungs, tumor, heart, liver, and kidney were removed. […] Sections for staining were dewaxed with xylene and then rehydrated, and hematoxylin-eosin staining was performed, after which the sections were again dehydrated in ethanol and cleared with xylene before being mounted on a slide, cover-slipped and examined microscopically. The remainder of the tumors and tissues was frozen in liquid nitrogen for other studies.

Setting [8] is: nude mice, NY-2 6 mg/kg, paclitaxel 1 mg/kg, n=6, mean ± SEM.

Consider `Cc1c(C=C2C(=O)NC(=S)NC2=O)c2ccccc2n1CCOc1ccc(F)cc1` [NY-2], for which, in data set [1], the “cytotoxic effects on HUVEC cells” value is “no obvious cytotoxic effects”. Also, the “deaths in acute toxicity assay” value in data set [2] is “no deaths occurred”. Also, the “LDH activity in cell culture supernatants” value in data set [3] is “increased in a concentration-dependent manner”. The “invasion of A549 cells” value in data set [4] was “inhibit the invasion and migration of A549 cells in a concentration-dependent manner”. For the same compound, the “migration of A549 cells” value in data set [5] is “inhibit the invasion and migration of A549 cells in a concentration-dependent manner”. Also, the “expression of Notch1 and integrinβ1” value in data set [6] was “reduced the expression of Notch1 and integrinβ1in a dose-dependence manner”. In addition, in data set [7] (nude mice with A549 lung metastasis, tail vein every other day, NY-2 6 mg/kg, paclitaxel 1 mg/kg, n=6, mean ± SEM), the “Body weight before dissection” value was found to be 23.48 ± 0.50 g. Besides, in data set [7] (setting [8]), the “Heart as a proportion of body weight” value is listed as 0.56 ± 0.03 10^-2, the “Kidney as a proportion of body weight” value was 1.74 ± 0.03 10^-2, the “Liver as a proportion of body weight” value is given as 5.45 ± 0.05# 10^-2 and the “Lung as a proportion of body weight” value was 0.67 ± 0.03 10^-2. Further, in data set [7] (setting [8]), the “Quality of the heart” value is recorded as 0.13 ± 0.01 g, the “Quality of the kidney” value is 0.41 ± 0.01 g, the “Quality of the liver” value came out at 1.28 ± 0.04 g and the “Quality of the lung” value is reported as 0.16 ± 0.01 g. For the same compound, the “average percentage of metastatic lung surface area to the total lung area” value in data set [7] (nude mice, A549 tail vein, NY-2 6 mg/kg every other day, model group 12.91 ± 11.93%) is 0.25 ± .62%. Further, the “infiltration of A549 cells in the lung tissue (H&E)” value in data set [7] (nude mice, NY-2 6 mg/kg, paclitaxel 1 mg/kg) was “no infiltration of A549 cells in the lung tissue”. Moreover, the “toxic effects on the heart, liver or kidney (H&E)” value in data set [7] (nude mice, tail vein injection 6 mg/kg) is “no obvious toxic effects”.
